Measurements published in US10004701B2, “Methods and compositions for treating infection” (UNIVERSITY OF ROCHESTER, priority 2012, dated 2018).
Where a name gives a salt, the structure may show the parent alone. Read-outs that look alike come from different tables or passages of the source.

What was measured:
Experiment in all cases: AK assay 384-well format, Prestwick library screening
[1] = test system: P. aeruginosa; format: cell-based, Pseudomonas aeruginosa; settings: 50 μM final drug concentration; for fold induction at 50 µM: Pseudomonas aeruginosa, 3 h
[2] = test system: E. coli; format: cell-based, Escherichia coli; settings: 50 μM final drug concentration; for fold induction at 50 µM: Escherichia coli, 3 h
[3] = test system: E. cloacae; format: cell-based, Enterobacter cloacae; settings: 50 μM final drug concentration; for fold induction at 50 µM: Enterobacter cloacae, 3 h
[4] = test system: S. aureus strain USA300-0114; format: cell-based, Staphylococcus aureus; settings: 50 μM final drug concentration; for fold induction at 50 µM: Staphylococcus aureus, USA300, 3 h
[5] = test system: K. pneumoniae; format: cell-based, Klebsiella pneumoniae; settings: 50 μM final drug concentration; for fold induction at 50 µM: Klebsiella pneumoniae, 3 h
[6] = test system: E. faecium; format: cell-based, Enterococcus faecium; settings: 50 μM final drug concentration; for fold induction at 50 µM: Enterococcus faecium, 3 h
[7] = test system: A. baumannii strain 98-37-09; format: cell-based, Acinetobacter baumannii; settings: 50 μM final drug concentration; for fold induction at 50 µM: Acinetobacter baumannii, 983709, 3 h
[8] = cutoff for positive-scoring molecules 3-fold increase
[9] = planktonic P. aeruginosa, cutoff for positive-scoring molecules 3-fold increase, read-out: AK-based Prestwick Library Screening Results, P. aeruginosa (increase in extracellular AK activity)
[10] = planktonic E. coli, cutoff for positive-scoring molecules 3-fold increase, read-out: AK-based Prestwick Library Screening Results, E. coli (increase in extracellular AK activity)
[11] = planktonic E. cloacae, cutoff for positive-scoring molecules 3-fold increase, read-out: AK-based Prestwick Library Screening Results, E. cloacae (increase in extracellular AK activity)
[12] = planktonic S. aureus, cutoff for positive-scoring molecules 3-fold increase, read-out: AK-based Prestwick Library Screening Results, S. aureus (increase in extracellular AK activity)
[13] = planktonic K. pneumoniae, cutoff for positive-scoring molecules 3-fold increase, read-out: AK-based Prestwick Library Screening Results, K. pneumoniae (increase in extracellular AK activity)
[14] = planktonic E. faecium, cutoff for positive-scoring molecules 3-fold increase, read-out: AK-based Prestwick Library Screening Results, E. faecium (increase in extracellular AK activity)
[15] = planktonic A. baumannii, cutoff for positive-scoring molecules 3-fold increase, read-out: AK-based Prestwick Library Screening Results, A. baumannii (increase in extracellular AK activity)
[16] = planktonic, cutoff for positive 3-fold increase

## CN(C)CCCOc1nn(Cc2ccccc2)c2ccccc12 [Benzydamine hydrochloride]
[1]; planktonic P. aeruginosa, 384-well, cutoff for positive-scoring molecules 3-fold increase, read-out: AK-based Prestwick Library Screening Results: P. aeruginosa (increase in extracellular AK activity)
  fold induction at 50 µM: 1.2
[2]; planktonic E. coli, 384-well, cutoff for positive-scoring molecules 3-fold increase, read-out: AK-based Prestwick Library Screening Results: E. coli (increase in extracellular AK activity)
  fold induction at 50 µM: 1.3
[3]; planktonic E. cloacae, 384-well, cutoff for positive-scoring molecules 3-fold increase, read-out: AK-based Prestwick Library Screening Results: E. cloacae (increase in extracellular AK activity)
  fold induction at 50 µM: 1.2
[4]; planktonic S. aureus, 384-well, cutoff for positive-scoring molecules 3-fold increase, read-out: AK-based Prestwick Library Screening Results: S. aureus (increase in extracellular AK activity)
  fold induction at 50 µM: 1.1
[5]; planktonic K. pneumoniae, 384-well, cutoff for positive-scoring molecules 3-fold increase, read-out: AK-based Prestwick Library Screening Results: K. pneumoniae (increase in extracellular AK activity)
  fold induction at 50 µM: 1
[6]; planktonic E. faecium, 384-well, cutoff for positive-scoring molecules 3-fold increase, read-out: AK-based Prestwick Library Screening Results: E. faecium (increase in extracellular AK activity)
  fold induction at 50 µM: 1.1
[7]; planktonic A. baumannii, 384-well, cutoff for positive-scoring molecules 3-fold increase, read-out: AK-based Prestwick Library Screening Results: A. baumannii (increase in extracellular AK activity)
  fold induction at 50 µM: 1

## CC1(C)S[C@@H]2[C@H](NC(=O)Cc3ccccc3)C(=O)N2[C@H]1C(=O)O [Benzylpenicillin sodium]
[1]; planktonic P. aeruginosa, positive cutoff 3-fold increase, read-out: AK-based Prestwick library screening result, P. aeruginosa (fold increase in extracellular AK activity)
  fold induction at 50 µM: 0.7
[2]; planktonic E. coli, positive cutoff 3-fold increase, read-out: AK-based Prestwick library screening result, E. coli (fold increase in extracellular AK activity)
  fold induction at 50 µM: 11.3
[3]; planktonic E. cloacae, positive cutoff 3-fold increase, read-out: AK-based Prestwick library screening result, E. cloacae (fold increase in extracellular AK activity)
  fold induction at 50 µM: 1.2
[4]; planktonic S. aureus, positive cutoff 3-fold increase, read-out: AK-based Prestwick library screening result, S. aureus (fold increase in extracellular AK activity)
  fold induction at 50 µM: 0.8
[5]; planktonic K. pneumoniae, positive cutoff 3-fold increase, read-out: AK-based Prestwick library screening result, K. pneumoniae (fold increase in extracellular AK activity)
  fold induction at 50 µM: 0.6
[6]; planktonic E. faecium, positive cutoff 3-fold increase, read-out: AK-based Prestwick library screening result, E. faecium (fold increase in extracellular AK activity)
  fold induction at 50 µM: 1.7
[7]; planktonic A. baumannii, positive cutoff 3-fold increase, read-out: AK-based Prestwick library screening result, A. baumannii (fold increase in extracellular AK activity)
  fold induction at 50 µM: 2.9

## C[N+](C)(CCOc1ccccc1)Cc1ccccc1.O=C([O-])c1cc2ccccc2cc1O [Bephenium hydroxynaphthoate]
[1]; [8]
  AK-based Prestwick Library Screening Results, P. aeruginosa (fold increase in extracellular AK activity): 1.0
[2]; [8]
  AK-based Prestwick Library Screening Results, E. coli (fold increase in extracellular AK activity): 1.2
[3]; [8]
  AK-based Prestwick Library Screening Results, E. cloacae (fold increase in extracellular AK activity): 2.0
[4]; [8]
  AK-based Prestwick Library Screening Results, S. aureus (fold increase in extracellular AK activity): 1.2
[5]; [8]
  AK-based Prestwick Library Screening Results, K. pneumoniae (fold increase in extracellular AK activity): 1.0
[6]; [8]
  AK-based Prestwick Library Screening Results, E. faecium (fold increase in extracellular AK activity): 1.0
[7]; [8]
  AK-based Prestwick Library Screening Results, A. baumannii (fold increase in extracellular AK activity): 0.9

## CC(C)COCC(CN(Cc1ccccc1)c1ccccc1)N1CCCC1 (stereo not shown) [Bepridil hydrochloride]
[1]; [9]
  fold induction at 50 µM: 1.2
[2]; [10]
  fold induction at 50 µM: 1.3
[3]; [11]
  fold induction at 50 µM: 1.4
[4]; [12]
  fold induction at 50 µM: 1.6
[5]; [13]
  fold induction at 50 µM: 1
[6]; [14]
  fold induction at 50 µM: 1.1
[7]; [15]
  fold induction at 50 µM: 1.5

## COc1ccc2cc3[n+](cc2c1OC)CCc1cc2c(cc1-3)OCO2 [Berberine chloride]
[1]; [9]
  fold induction at 50 µM: 0.9
[2]; [10]
  fold induction at 50 µM: 1
[3]; [11]
  fold induction at 50 µM: 1.1
[4]; [12]
  fold induction at 50 µM: 0.7
[5]; [13]
  fold induction at 50 µM: 0.7
[6]; [14]
  fold induction at 50 µM: 1
[7]; [15]
  fold induction at 50 µM: 0.9

## COc1c(O)cc2c(c1O)[C@@H]1O[C@H](CO)[C@@H](O)[C@H](O)[C@H]1OC2=O [Bergenin monohydrate]
[1]; planktonic, cutoff for positive-scoring molecules 3-fold increase, read-out: AK-based Prestwick Library Screening Results, P. aeruginosa (fold increase in extracellular AK activity)
  fold induction at 50 µM: 0.8
[2]; planktonic, cutoff for positive-scoring molecules 3-fold increase, read-out: AK-based Prestwick Library Screening Results, E. coli (fold increase in extracellular AK activity)
  fold induction at 50 µM: 0.7
[3]; planktonic, cutoff for positive-scoring molecules 3-fold increase, read-out: AK-based Prestwick Library Screening Results, E. cloacae (fold increase in extracellular AK activity)
  fold induction at 50 µM: 1.1
[4]; planktonic, cutoff for positive-scoring molecules 3-fold increase, read-out: AK-based Prestwick Library Screening Results, S. aureus (fold increase in extracellular AK activity)
  fold induction at 50 µM: 0.9
[5]; planktonic, cutoff for positive-scoring molecules 3-fold increase, read-out: AK-based Prestwick Library Screening Results, K. pneumoniae (fold increase in extracellular AK activity)
  fold induction at 50 µM: 0.8
[6]; planktonic, cutoff for positive-scoring molecules 3-fold increase, read-out: AK-based Prestwick Library Screening Results, E. faecium (fold increase in extracellular AK activity)
  fold induction at 50 µM: 0.9
[7]; planktonic, cutoff for positive-scoring molecules 3-fold increase, read-out: AK-based Prestwick Library Screening Results, A. baumannii (fold increase in extracellular AK activity)
  fold induction at 50 µM: 0.9

## CC[C@H](CC[C@@H](C)[C@H]1CC[C@H]2[C@@H]3CC=C4C[C@@H](O)CC[C@]4(C)[C@H]3CC[C@]12C)C(C)C [Beta-sistosterol]
[1]; planktonic P. aeruginosa, […]
  AK-based Prestwick library screening result, P. aeruginosa (fold increase in extracellular AK activity): 0.8
[2]; planktonic E. coli, […]
  AK-based Prestwick library screening result, E. coli (fold increase in extracellular AK activity): 0.8
[3]; planktonic E. cloacae, […]
  AK-based Prestwick library screening result, E. cloacae (fold increase in extracellular AK activity): 1.1
[4]; planktonic S. aureus, […]
  AK-based Prestwick library screening result, S. aureus (fold increase in extracellular AK activity): 0.7
[5]; planktonic K. pneumoniae, […]
  AK-based Prestwick library screening result, K. pneumoniae (fold increase in extracellular AK activity): 0.8
[6]; planktonic E. faecium, […]
  AK-based Prestwick library screening result, E. faecium (fold increase in extracellular AK activity): 0.9
[7]; planktonic A. baumannii, […]
  AK-based Prestwick library screening result, A. baumannii (fold increase in extracellular AK activity): 0.8

## CNCCc1ccccn1.CS(=O)(=O)O.CS(=O)(=O)O [Betahistine mesylate]
[1]; [16]
  AK-based Prestwick Library Screening Results, P. aeruginosa (fold increase in extracellular AK activity): 1.1
[2]; [16]
  AK-based Prestwick Library Screening Results, E. coli (fold increase in extracellular AK activity): 1.4
[3]; [16]
  AK-based Prestwick Library Screening Results, E. cloacae (fold increase in extracellular AK activity): 1.3
[4]; [16]
  AK-based Prestwick Library Screening Results, S. aureus (fold increase in extracellular AK activity): 0.9
[5]; [16]
  AK-based Prestwick Library Screening Results, K. pneumoniae (fold increase in extracellular AK activity): 1.1
[6]; [16]
  AK-based Prestwick Library Screening Results, E. faecium (fold increase in extracellular AK activity): 0.9
[7]; [16]
  AK-based Prestwick Library Screening Results, A. baumannii (fold increase in extracellular AK activity): 1.2

## C[C@H]1C[C@H]2[C@@H]3CCC4=CC(=O)C=C[C@]4(C)[C@@]3(F)[C@@H](O)C[C@]2(C)[C@@]1(O)C(=O)CO [Betamethasone]
[1]; [9]
  fold induction at 50 µM: 1.1
[2]; planktonic E. coli, […], read-out: AK-based Prestwick Library Screening Results, E. coli (increase in extracellular AK activity)
  fold induction at 50 µM: 1.1
[3]; [11]
  fold induction at 50 µM: 1.3
[4]; [12]
  fold induction at 50 µM: 1.1
[5]; [13]
  fold induction at 50 µM: 0.9
[6]; [14]
  fold induction at 50 µM: 1.1
[7]; [15]
  fold induction at 50 µM: 0.9

## CC(C)NCC(O)COc1ccc(CCOCC2CC2)cc1 (stereo not shown) [Betaxolol hydrochloride]
[1]; planktonic, cutoff for positive 3-fold increase, read-out: AK-based Prestwick Library Screening Results, P. aeruginosa (fold increase in extracellular AK activity)
  fold induction at 50 µM: 1.1
[2]; planktonic, cutoff for positive 3-fold increase, read-out: AK-based Prestwick Library Screening Results, E. coli (fold increase in extracellular AK activity)
  fold induction at 50 µM: 1.2
[3]; planktonic, cutoff for positive 3-fold increase, read-out: AK-based Prestwick Library Screening Results, E. cloacae (fold increase in extracellular AK activity)
  fold induction at 50 µM: 1.6
[4]; planktonic, cutoff for positive 3-fold increase, read-out: AK-based Prestwick Library Screening Results, S. aureus (fold increase in extracellular AK activity)
  fold induction at 50 µM: 0.9
[5]; planktonic, cutoff for positive 3-fold increase, read-out: AK-based Prestwick Library Screening Results, K. pneumoniae (fold increase in extracellular AK activity)
  fold induction at 50 µM: 1
[6]; planktonic, cutoff for positive 3-fold increase, read-out: AK-based Prestwick Library Screening Results, E. faecium (fold increase in extracellular AK activity)
  fold induction at 50 µM: 0.9
[7]; planktonic, cutoff for positive 3-fold increase, read-out: AK-based Prestwick Library Screening Results, A. baumannii (fold increase in extracellular AK activity)
  fold induction at 50 µM: 1.4
